From US9795649B2, “Sesquiterpenoid-based compounds, extracts of Cyperus rotundus comprising the same, and use thereof” (RESEARCH & BUSINESS FOUNDATION SUNGKYUNKWAN UNIVERSITY, priority 2013, dated 2017)
“Also recorded” adds a separate entry of the source.

What was measured:
Type in all cases: cell-based
MCF-7-bus cells = assay: E-screen assay for estrogenic activity; details: isolated compounds; FIGS. 4A and 4B
Source text: E-screen assay is a method of measuring estrogenic action of a substance, i.e., a method of utilizing the growth effect of MCF-7-bus, a breast cancer cell line with endogenous estrogen receptors (ER) expressed therein, which is stimulated by an estrogenic substance. In the present invention, estrogenic activities of the methanol extract and the organic solvent fraction thereof, the ethanol extract and the column fraction thereof were examined by E-screen assay.
(§1) In detail, MCF-7-bus cells were cultured in a 5% FBS DMEM medium and seeded in a 48-well plate at a density of 5×10^3 cells/well. The cells were cultured in a CO2 incubator at 37° C. for 48 hours, and then washed with a phenol red-free medium twice. The test materials were diluted with 5% CD-FBS DMEM at different concentrations, and then cells were treated therewith. The concentration of the solvent was in principle adjusted to 0.1%. After culturing for 144 hours (6 days), cells were fixed to the plate with TCA (Trichloroacetic acid) solution. The cells thus fixed were stained with SRB (Sulforhodamin B) dye, and the SRB dye remaining in the plate was removed by washing with acetic acid. The bound SRB dye was eluted from the cells with tris-base solution, and absorbance at 490 nm was measured to calculate the amount of SRB dye. Finally, estrogenic actions of the test materials were confirmed.

MCF-7 bus cells [1] = assay: E-screen assay with co-treatment of tamoxifen (estrogen receptor antagonist); details: tamoxifen 10^−6M; FIGS. 5A and 5B
Description: as §1
In detail, Tamoxifen is a representative estrogen receptor antagonist, and in this experiment, in order to examine whether the test materials show the estrogen receptor-mediated estrogenic actions, the test materials were mixed with tamoxifen (10^−6M) and MCF-7 bus cells were treated with the mixture to perform e-screen assay, and the results are shown in FIG. 5.

MCF-7 bus cells [2] = assay: E-screen assay with co-treatment of high or low concentration of estradiol (SERM function); details: for change in estrogenic activity by co-treatment of high concentration of estrogen: estradiol 10^−7M, FIGS. 6A and 6B; for change in estrogenic activity by co-treatment of low concentration of estrogen: estradiol 10^−13M, FIGS. 7A and 7B
Description: as §1
In detail, to examine whether the test materials function as an antagonist of estrogen at excessively high level of estrogen in the body, the test materials were mixed with high concentration of estradiol (10^−7M) and MCF-7 bus cells were treated with the mixture. To examine whether the test materials function as an agonist of estrogen at estrogen deficiency in the body, the test materials were mixed with a low concentration of estradiol (10^−13M) and MCF-7 bus cells were treated with the mixture. Then, e-screen assay was performed.

RBL-2H3 cell line = assay: β-Hexosaminidase release assay for anti-allergic activity; details: Rattus norvegicus, 50 μg/ml, Mean ± SD, read-out: Degranulation-inhibitory activity (%, Mean ± SD)
Description: β-Hexosaminidase release assay is an experiment for examining anti-allergic activity by activating the RBL-2H3 cell line with an activating factor, treating the activated cells with an antigen, and then measuring the amount of released β-hexosaminidase to examine inhibitory effect on degranulation, and this assay was performed as follows.
In detail, the RBL-2H3 cell line was cultured in minimum essential media (hereinafter, referred to as EMEM) containing Eagle's salt supplemented with 15% fetal bovine serum and L-glutamine at 37° C. in a 5% CO2 incubator. Adherent cells were suspended by Trypsin-EDTA, and separated, recovered for use in the experiment. The RBL-2H3 cell line was activated with an activating factor (Dinitrophenol-conjugated human serum albumin, (DNP-HSA)-specific IgE), and then the activated cells were treated with 200 ng/mL of an antigen (DNP-HSA), and 0, 6.25, 12.5, 25, 50, or 100 μg/mL of the fraction of the extract of Cyperus rotundus was treated, respectively. Cells were incubated for 30 minutes. As a positive control, 50 μg/mL of ketotifen was used. Thereafter, the amount of β-hexosaminidase released to the medium was measured using a microplate spectrophotometer. Inhibition of β-hexosaminidase release means prevention of degranulation of immune cells.

Row | Molecule | estrogenic activity (MCF-7-bus cells) | estrogenic activity by co-treatment with tamoxifen (MCF-7 bus cells [1]) | change in estrogenic activity by co-treatment of high concentration of estrogen (MCF-7 bus cells [2]) | change in estrogenic activity by co-treatment of low concentration of estrogen (MCF-7 bus cells [2]) | inhibition at 50 µg/mL (RBL-2H3 cell line) [%]
1 | C=C(C)[C@@H]1CC[C@@]2(C)CCC(=O)[C@@]3(C)O[C@@]23C1 [Compound [1], 4α,5α-oxidoeudesm-11-en-3-one] | excellent estrogenic activity; also recorded: high estrogenic activity | remarkably reduced activities | function as an estrogen inhibitor | function as an estrogen supplement | –
2 | C=C(C)C1CCC2(C)CCC(OC)C(C)=C2C1 (stereo not drawn) [Compound [6], 3α-methoxyeudesma-4,11-diene] | high estrogenic activity | remarkably reduced activities | function as an estrogen inhibitor | function as an estrogen supplement | 41.7 ± 5.4
3 | CN1CCC(=C2c3ccccc3CC(=O)c3sccc32)CC1 [Ketotifen, ketotifen, reference compound] | – | – | – | – | 50.5 ± 2.28
4 | cyper-11-ene-3,4-dione [Compound [2]] | high estrogenic activity | remarkably reduced activities | function as an estrogen inhibitor | function as an estrogen supplement | –
